Assay results taken from patent US20250041479A1, “PHOTO-ENZYMATIC PRINTING” (The Board of Trustees of the Leland Stanford Junior …, priority 2021, published 2025).

Key:
Assay type in all cases: physicochemical
[1] = Durability of the Razo cis-trans interconversion; settings: blue then UV to photostationary states, repeated 15 times
Description: (§1) Razo as a stock solution of 70 mM in DMSO was diluted to 25 μM Razo in buffer (20 mM Tris-HCl, pH 7.4, 40 mM KCl). Absorbance spectra were acquired on a PerkinElmer UV-Vis spectrometer and sample illumination light was from a Lumencor Aura light engine, with a Blue light output centered on 475 nm with 28 nm bandpass filter and UV light output centered on 360 nm with a 28 nm bandpass filter. cis-Razo and trans-Razo Absorbance spectra shapes agreed with those from the paper where Razo was originally developed (Wang, et al. Angew. Chem., Int. Ed. 2010, 49, 5305). We aimed to characterize several features of the isomerization that are relevant to inform printing parameters for patterning of the substrate: light kinetics, dark kinetics, and durability.
Blue light was applied until the trans-dominated photostationary state was reached (blue curve in FIG. 5). Then UV light was applied until the cis-dominated photostationary state was reached (purple curve in FIG. 5).

[2] = Razo cis-trans thermal conversion in the dark; settings: after long UV exposure, kept in the dark for 15 minutes
Description: as §1
After a long UV exposure to drive Razo to the cis dominated photostationary state, the sample was kept in the dark for 15 and 90 minutes.

[3] = Razo cis-trans conversion using light (UV-Vis absorbance spectra)
Description: as §1
After a long Blue (referred to as ‘visible’ in legend) light exposure to drive Razo to a trans dominated photostationary state, the amount of UV light necessary to drive Razo to the cis dominated photostationary state was determined to be roughly 10 seconds at 25% power (approximately 15 mW/cm^2).
After a long UV light exposure to drive Razo to a cis dominated photostationary state, the amount of Blue light necessary to drive Razo to the trans dominated photostationary state was determined to be roughly 10 seconds at 50% power (approximately 50 mW/cm^2).

SMILES: C[N+]1(CCOc2ccc(/N=N/c3ccc(OCC[N+]4(C)CCCCC4)cc3)cc2)CCCCC1 [Razo]
- isomerization efficiency over repeated blue/UV cycles [1]: isomerization efficiency is maintained over 15 cycles
- relaxation of cis to trans in the dark [2]: almost no relaxation of cis to trans
- amount of UV light necessary to drive Razo to the cis dominated photostationary state ([3]; 25 μM Razo in buffer (20 mM Tris-HCl, pH 7.4, 40 mM KCl), after long Blue exposure, UV 360 nm at 25% power (approximately 15 mW/cm^2)): roughly 10 seconds
- amount of Blue light necessary to drive Razo to the trans dominated photostationary state ([3]; 25 μM Razo in buffer, after long UV exposure, Blue 475 nm at 50% power (approximately 50 mW/cm^2)): roughly 10 seconds
